Here are results for 11 molecules from PubChem BioAssay (NCI).

Molecules are shown by their SMILES.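 Step 1: Grow cells in 96-well plates. Step 2: Expose to compound for 48 hours at 5 concentrations. Step 3: Interpolate endpoints linearly; if unreached, use highest concentration. TGI denotes the concentration required for complete inhibition of growth.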

Assay in all cases: NCI anticancer screen, dose series, 48 h
The subject of experiment [1] is KM12 colon.
Experiment [2] relates to MCF7 breast.
For experiment [3], the system named is MDA-MB-231 breast.
For experiment [4], the system named is OVCAR-5 ovarian.
The test system of experiment [5] is OVCAR-8 ovarian.
Experiment [6] has as its system RXF 393 renal.
The subject of experiment [7] is SF-268 CNS.
In experiment [8] the test system is SK-MEL-2 melanoma.
The subject of experiment [9] is SK-MEL-28 melanoma.
The test system of experiment [10] is SN12C renal.
Experiment [11] relates to T-47D breast.
Experiment [12] relates to U251 CNS.
For experiment [13], the system named is NCI-H522 lung.

`CC1CC/C(=C\c2ccc(Cl)cc2)C(=O)/C1=C\c1ccc(Cl)cc1` (stereo not given): the TGI in [1] is 41.5 µM; in experiment [2] it was more than 100 µM; in experiment [3], more than 100 µM; in experiment [4], 44.6 µM; in experiment [5], more than 100 µM; in [6], 71.7 µM. The TGI was more than 100 µM in experiment [7]; 37.9 µM in experiment [8]; more than 100 µM in [9]; 95.5 µM in [10]; more than 100 µM in experiment [11]; more than 100 µM in [12].
Regarding `c1ccc2nc3c(nc2c1)sc1nc2ccccc2n13`, the TGI in [1], in experiment [2], in experiment [3], in experiment [4], in experiment [5] and in experiment [6] was more than 100 µM each time. In addition, the TGI in experiment [7], in experiment [10], in [11] and in experiment [12] was more than 100 µM throughout.
For the molecule `Cc1ccc(/C(O)=C/c2nc3ccccc3nc2NC23CC4CC(CC(C4)C2)C3)cc1`, the TGI in experiment [1], in experiment [2], in experiment [3], in experiment [13], in experiment [4] and in experiment [5] was more than 10 µM each time. Further, the TGI in experiment [7], in experiment [9], in experiment [10], in experiment [11] and in experiment [12] was more than 10 µM each time.
Consider `N#Cc1cccc(Nc2ccccc2SSc2ccccc2Nc2cccc(C#N)c2)c1`, for which the TGI in experiment [1] is 16.2 µM; in [2] it was 16.5 µM; in [3], more than 21.5 µM; in experiment [13], 12.2 µM; in experiment [4] it was more than 21.5 µM; in experiment [5] it was more than 21.5 µM. In addition, the TGI in experiment [7] is more than 21.5 µM; in experiment [9], more than 21.5 µM; in experiment [10], more than 21.5 µM; in experiment [11], more than 21.5 µM; in [12], 12 µM.
Regarding `O=C1CCCSCCCC(=O)CCCSCCC1`, the TGI in experiment [1], in experiment [2], in experiment [3], in [13], in [4] and in [5] was more than 100 µM in each case. Moreover, the TGI in experiment [7], in experiment [9], in experiment [10], in experiment [11] and in experiment [12] was more than 100 µM each time.
For `CCCCn1c(C)c(C)c2c1NN=C(C#N)S2(=O)=O`, the TGI in experiment [1], in [2], in experiment [3], in experiment [13], in experiment [4] and in experiment [5] was more than 100 µM throughout. For the same molecule, the TGI in experiment [7], in experiment [8], in experiment [9], in experiment [10], in experiment [11] and in [12] was more than 100 µM in each case.
`CC(C)/C(Cl)=N/OC(NC(=O)Nc1ccc(Cl)c(Cl)c1)(C(F)(F)F)C(F)(F)F`: the TGI in experiment [1] was 36.1 µM; in experiment [2] it was more than 50.2 µM; in experiment [3], 34.2 µM; in experiment [13], 3.31 µM; in [4] it was 38.4 µM; in [5], 34.8 µM. Also, the TGI was 9.23 µM in [6]; 39.4 µM in [7]; 35.3 µM in [9]; 33.9 µM in [10]; 19.4 µM in experiment [11]; 33.2 µM in experiment [12].
As for `COc1ccc2c(c1)nc1n2C(c2c(F)cccc2F)SC1` (stereo not given), the TGI in experiment [1], in experiment [2], in experiment [3], in [4], in experiment [5] and in [6] was more than 100 µM each time. The TGI is more than 100 µM in experiment [7]; 96.7 µM in [8]; more than 100 µM in [9]; more than 100 µM in experiment [10]; more than 100 µM in experiment [11]; more than 100 µM in experiment [12].
Consider `O=C(/C=C/c1ccsc1)c1cccs1`, for which the TGI in [1] was 35.1 µM; in experiment [2], 52.2 µM; in experiment [3], more than 100 µM; in [13], 39.4 µM; in [4], more than 100 µM; in experiment [5], more than 10 µM. Also, the TGI in experiment [6] came to 42.9 µM; in experiment [7] it was 81.2 µM; in experiment [9], 46.1 µM; in experiment [10], 41.9 µM; in experiment [11] it was 54.3 µM; in experiment [12], 44.2 µM.
Regarding `COc1ccc(OC)c2sc(N3C(=O)/C(=C/c4ccc(N(C)C)cc4)N=C3c3ccccc3)nc12`, the TGI in experiment [1] was more than 100 µM; in experiment [2], 63.4 µM; in experiment [3] it was more than 100 µM; in experiment [4], more than 100 µM; in [5] it was more than 100 µM; in experiment [7], more than 100 µM. The TGI in experiment [8], in [9], in [10], in experiment [11] and in [12] was more than 100 µM in each case.
Take `CC(SC(=S)N1CCCC1)C(=O)Nc1nnc(-c2ccc(Cl)cc2)o1` (stereo not given): the TGI in [2] is more than 100 µM; in experiment [3] it was more than 100 µM; in experiment [4] it was more than 100 µM; in experiment [5], more than 100 µM; in experiment [6], more than 100 µM; in experiment [7], 96.9 µM. Also, the TGI in experiment [8] was more than 100 µM; in experiment [9], more than 100 µM; in experiment [10], 59.9 µM; in experiment [11], more than 100 µM; in experiment [12] it was more than 100 µM.
